In assay [1] the target is T1, interaction between GMPPNP-bound recombinant K-Ras4B G12C mutant protein and cRAF RAS-binding domain (cRAF-RBD) (Homo sapiens, UniProt P01116, G12C).
T1 construct: His-tag (N)
Put plainly: Inhibitory activity on interaction between KRAS G12C and cRAF (Alpha technology). An outline of the steps:
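Alpha signal measured 1.5 h after adding cRAF-RBD (aa 50-132) and detection reagents to GMPPNP-bound KRAS G12C (aa 1-169) pretreated 1 h at 25° C with compound (pH 7.5 buffer). 0% inhibition = DMSO, 100% = GDP-loaded KRAS; IC50 by curve fit.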

In another assay the test system is MIA PaCa-2 cells. Put plainly: Growth inhibition activity on KRAS-G12C mutant cell line (CellTiter-Glo 3D). The format is cell-based, human. The note with it: MIA PaCa-2, 3-day culture with compound. Put shortly: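 IC50 (nM) derived from inhibition of luminescence (CellTiter-Glo 3D) relative to compound-free wells. Cells were seeded in U-bottom plates, grown 1 day, then exposed to compound for 3 days at 37 °C with 0.2% final DMSO.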
On the technique in general: ATP-based viability assays read luminescence as a measure of living cells.

The mark [2] stands for this setting: GMPPNP-bound KRAS G12C incubated with compound 25° C. 1 hour, Table 2, read-out: IC50.
The mark [3] stands for this setting: IC50, GMPPNP-bound KRAS G12C incubated with compound 25° C. 1 hour, Table 2.
Setting [4] is: Homo sapiens, MIA PaCa-2, 72 h, Table 3.
[5] abbreviates: GMPPNP-bound KRAS G12C incubated with compound 25° C. 1 hour, Table 2-1, read-out: IC50.
Where [6] appears, read: Homo sapiens, MIA PaCa-2, 72 h, Table 3-1.
Where [7] appears, read: IC50, GMPPNP-bound KRAS G12C incubated with compound 25° C. 1 hour, Table 2-1.

As usually defined, the IC50 is the concentration needed to halve the response being measured.

Read-outs that look alike come from different tables or passages of the source.

T1 sequence (P01116 with tags, fused parts or gaps isoform P01116-2 G12C): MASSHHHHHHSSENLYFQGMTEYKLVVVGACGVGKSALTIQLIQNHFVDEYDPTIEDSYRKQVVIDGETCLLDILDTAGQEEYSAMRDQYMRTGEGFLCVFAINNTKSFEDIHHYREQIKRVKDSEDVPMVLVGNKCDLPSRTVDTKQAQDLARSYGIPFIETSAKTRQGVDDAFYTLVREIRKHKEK

Turning to `CO[C@H]1CC[C@H](NC/C=C/C(=O)Nc2c(F)cc(C(=O)c3cc4c5c(cccn35)-c3c(C(F)(F)F)cc5c(nc(C)n5C)c3OC(C)C4)cc2F)CC1` (stereo partly drawn) [Example 43, (E)-N-(2,6-difluoro-4-(9,10,13-trimethyl-7-(trifluoromethyl)-13,14-dihydro-9H-imidazo[4″,5″:5′,6′]benzo[1′,2′:2,3]oxocino[4,5,6-hi]indolizine-2-carbonyl)phenyl)-4-(((1r,4r)-4-methoxycyclohexyl)amino)but-2-enamide], the IC50 came to 17 nM in assay [1] (setting [2]) and 14 nM in the assay on MIA PaCa-2 cells (Table 3).
For `CO[C@H]1CC[C@H](NC/C=C/C(=O)Nc2c(F)cc(C(=O)c3cn4c5c(cccc35)-c3c(C)cc5c(nc(C)n5C)c3N(C)CC4)cc2F)CC1` [Example 44], the results for the IC50 (in assay [1] (setting [3]); with MIA PaCa-2 cells (setting [4])) were 30 nM and 10 nM, respectively.
Consider `CO[C@H]1CC[C@H](NC/C=C/C(=O)Nc2c(F)cc(C(=O)c3cn4c5c(cccc35)-c3c(C(F)(F)F)cc5c(nc(C)n5C)c3N(C)CC4)cc2F)CC1` [Example 45, (E)-N-(2,6-difluoro-4-(8,9,11-trimethyl-6-(trifluoromethyl)-8,11,12,13-tetrahydroimidazo[4′ 5,6][1,4]diazocino[7,8,1-hi]indole-2-carbonyl)phenyl)-4-(((1,4r)-4-methoxycyclohexyl)amino)but-2-enamide], for which the figures for the IC50 (in assay [1] (setting [3]); in the assay with MIA PaCa-2 cells (setting [4])) were 21 nM and 5 nM, respectively.
As for `CO[C@H]1CC[C@H](NC/C=C/C(=O)Nc2c(F)cc(C(=O)c3nn4c5c(cccc35)-c3c(C(F)(F)F)cc5c(nc(C)n5C)c3OCC4)cc2F)CC1` [Example 46, (E)-N-(4-(8,9-dimethyl-6-(trifluoromethyl)-12,13-dihydro-8H-imidazo[4″,5″:3′4′]benzo[1′,2′:7,8][1,4]oxazocino[6,5,4-hi]indazole-2-carbonyl)-2,6-difluorophenyl)-4-(((1r,4r)-4-methoxycyclohexyl)amino)but-2-enamide], the IC50 in assay [1] (setting [2]) stood at 140 nM; in the assay on MIA PaCa-2 cells (setting [4]), 57 nM.
In the case of `CO[C@H]1CC[C@H](NC/C=C/C(=O)Nc2c(F)cc(C(=O)c3cn4c5c(cccc35)-c3c(C)cc5c(nc(C)n5C)c3N(C)C(=O)C4)cc2F)CC1` [Example 47, (E)-N-(2,6-difluoro-4-(6,8,9,11-tetramethyl-12-oxo-8,11,12,13-tetrahydroimidazo[4″,5″:5′,6′]benzo[1′,2′:5,6][1,4]diazocino[7,8,1-hi]indole-2-carbonyl)phenyl)-4-(((1r,4r)-4-methoxycyclohexyl)amino)but-2-enamide], the IC50 worked out at 23 nM in assay [1] (setting [3]) and 59 nM in the assay with MIA PaCa-2 cells (setting [4]).
The like results for `CO[C@H]1CC[C@H](NC/C=C/C(=O)Nc2c(F)cc(C(=O)c3cn4c5c(cccc35)-c3c(C(F)(F)F)ccc(=O)n3CCC4)cc2F)CC1` [Example 49, (E)-N-(2,6-difluoro-4-(8-oxo-11-(trifluoromethyl)-5,6-dihydro-4H,8H-pyrido[2′,1′:4,5][1,5]diazocino[3,2,1-hi]indole-1-carbonyl)phenyl-4-((1r,4r)-4-methoxycyclohexyl)amino)but-2-enamide] were, in that order, 260 nM and 150 nM.
Consider `Cc1nc2c3c(c(C(F)(F)F)cc2n1C)-c1cccn2c(C(=O)c4cc(F)c(NC(=O)/C=C/CNC5COC5)c(F)c4)cc(c12)CCO3` [Example 51, (E)-N-(4-(9,10-dimethyl-7-(trifluoromethyl)-13,14-dihydro-9H-imidazo-[4″,5″:5′,6′]benzo[1′,2′: 2,3]oxocino[4,5,6-hi]-indolizine-2-carbonyl)-2,6-difluorophenyl)-4-(oxetan-3-ylamino)but-2-enamide], for which the results for the concentration for half-maximal inhibition (IC50) (in assay [1] (setting [5]); in the assay on MIA PaCa-2 cells (setting [6])) were 45.4 nM and 15.9 nM, respectively.
The like results for `CO[C@H]1CC[C@H](NC/C=C/C(=O)Nc2c(F)cc(C(=O)c3cc4c5c(cccn35)-c3c(Cl)cc5c(nc(C)n5C)c3OCC4)cc2F)CC1` [Example 53] were, in that order, 22.2 nM and 31.9 nM.
The like results for `Cc1nc2c3c(c(C(F)(F)F)cc2n1C)-c1cccn2c(C(=O)c4cc(F)c(NC(=O)/C=C/CNC(C)(C)CF)c(F)c4)cc(c12)CCO3` [Example 56] were, in that order, 12.4 nM and 12.6 nM.
For `Cc1cc2c(nc(C)n2C)c2c1-c1cccn3c(C(=O)c4cc(F)c(NC(=O)/C=C/CNC5(C)CCOCC5)c(F)c4)cc(c13)CCN2C` [Example 57, (E)-N-(2,6-difluoro-4-(7,9,10,12-tetramethyl-9,12,13,14-tetrahydro-imidazo[4″,5″:5′,6′]benzo-[1′,2′:2,3]azocino[4,5,6-hi]indolizine-2-carbonyl)-phenyl)-4-((4-methyltetra-hydro-2H-pyran-4-yl)-amino)but-2-enamide], in that order: 78.3 nM and 68.5 nM.
In the case of `Cc1c2c3c(cccn3c1C(=O)c1cc(F)c(NC(=O)/C=C/CNC3(C)COC3)c(F)c1)-c1c(C(F)(F)F)cc3c(nc(C)n3C)c1OCC2` [Example 58, (E)-N-(2,6-difluoro-4-(1,9,10-trimethyl-7-(tri-fluoromethyl)-13,14-dihydro-9H-imidazo-[4″,5″:5′,6′]benzo[1′,2′: 2,3]oxocino[4,5,6-hi]-indolizine-2-carbonyl)-phenyl)-4-((3-methyl-oxetan-3-yl)amino)but-2-enamide], the values for the IC50 (in assay [1] (setting [5]); in the assay with MIA PaCa-2 cells (setting [6])) were 77.9 nM and 70.2 nM, respectively.
Regarding `CO[C@H]1CC[C@H](NC/C=C/C(=O)Nc2ccc(C(=O)c3cc4c5c(cccn35)-c3c(C(F)(F)F)cc5c(nc(C)n5C)c3OCC4)nc2)CC1` [Example 59, (E)-N-(6-(9,10-dimethyl-7-(trifluoromethyl)-13,14-dihydro-9H-imidazo-[4″,5″:5′,6′]benzo[1′,2′: 2,3]oxocino[4,5,6-hi]-indolizine-2-carbonyl)-pyridin-3-yl)-4-(((1r,4r)-4-methoxycyclohexyl)-amino)but-2-enamide], the concentration for half-maximal inhibition (IC50) is 27.6 nM in assay [1] (setting [5]) and 19.8 nM in the assay with MIA PaCa-2 cells (setting [6]).
For `Cc1nc2c3c(c(C(F)(F)F)cc2n1C)-c1cccn2c(C(=O)c4ccc(NC(=O)/C=C/CNC5(C)COC5)cn4)cc(c12)CCO3` [Example 60, (E)-N-(6-(9,10-dimethyl-7-(trifluoromethyl)-13,14-dihydro-9H-imidazo-[4″,5″:5′,6′]benzo[1′,2′: 2,3]oxocino[4,5,6-hi]-indolizine-2-carbonyl)-pyridin-3-yl)-4-((3-meth-yloxetan-3-yl)amino)but-2-enamide], the figures for the IC50 (in assay [1] (setting [5]); in the assay with MIA PaCa-2 cells (setting [6])) were 73.2 nM and 32.1 nM, respectively.
As to `CN1CCn2cc(C(=O)c3cc(F)c(NC(=O)/C=C/CNC4(C)COC4)c(F)c3)c3cccc(c32)-c2c(C(F)(F)F)cc3c(ncn3C)c21` [Example 61, (E)-N-(4-(8,11-dimethyl-6-(trifluoromethyl)-8,11,12,13-tetrahydro-imidazo[4″,5″:5′,6′]benzo-[1′,2′:5,6][1,4]diazocino-[7,8,1-hi]indole-2-carbon-yl)-2,6-difluorophenyl)-4-((3-methyloxetan-3-yl)-amino)but-2-enamide], the values for the IC50 (in assay [1] (setting [7]); with MIA PaCa-2 cells (setting [6])) were 76.3 nM and 16.3 nM, respectively.
For `CCN1CCn2cc(C(=O)c3cc(F)c(NC(=O)/C=C/CN[C@H]4CC[C@H](OC)CC4)c(F)c3)c3cccc(c32)-c2c(C)cc3c(nc(C)n3C)c21` [Example 66, (E)-N-(4-(11-ethyl-6,8,9-trimethyl-8,11,12,13-tetra-hydroimidazo[4″,5″:5′,6′]-benzo[1′,2′:5,6][1,4]diazo-cino[7,8,1-hi]indole-2-carbonyl)-2,6-difluoro-phenyl)-4-(((1r,4r)-4-meth-oxycyclohexyl)amino)but-2-enamide], in that order: 53.4 nM and 30.1 nM.
On to `CO[C@H]1CC[C@H](NC/C=C/C(=O)Nc2ccc(C(=O)c3cc4c5c(cccn35)-c3c(C(F)(F)F)cc5c(nc(C)n5C)c3OCC4)cc2F)CC1` [Example 67, (E)-N-(4-(9,10-dimethyl-7-(trifluoromethyl)-13,14-dihydro-9H-imidazo-[4″,5″:5′,6′]benzo[1′,2′: 2,3]oxocino[4,5,6-hi]-indolizine-2-carbonyl)-2-fluorophenyl)-4-(((1r,4r)-4-methoxycyclohexyl)-amino)but-2-enamide], for which the IC50 in assay [1] (setting [5]) came to 22 nM; with MIA PaCa-2 cells (setting [6]), 8.22 nM.
For `Cc1nc2c3c(c(C(F)(F)F)cc2n1C)-c1cccn2c(C(=O)c4ccc(NC(=O)/C=C/CNC5(C)COC5)c(F)c4)cc(c12)CCO3` [Example 68, (E)-N-(4-(9,10-dimethyl-7-(trifluoromethyl)-13,14-dihydro-9H-imidazo-[4″,5″:5′,6′]benzo[1′,2′: 2,3]oxocino[4,5,6-hi]-indolizine-2-carbonyl)-2-fluorophenyl)-4-((3-meth-yloxetan-3-yl)amino)but-2-enamide], in that order: 91.2 nM and 16.4 nM.
Regarding `CO[C@H]1CC[C@H](NC/C=C/C(=O)Nc2c(F)cc(C(=O)c3cn4c5c(cccc35)-c3c(C)cc5c(nc(C)n5C)c3N(C(C)=O)CC4)cc2F)CC1` [Example 72, (E)-N-(4-(11-acetyl-6,8,9-trimethyl-8,11,12,13-tetra-hydroimidazo[4″,5″: 5′,6′]benzo[1′,2′:2,3][1,4]-diazocino[7,8,1-hi]indole-2-carbonyl)-2,6-difluoro-phenyl)-4-(((1r,4r)-4-methoxycyclohexyl)-amino)but-2-enamide], the 50% inhibitory concentration (IC50) worked out at 97.8 nM in assay [1] (setting [7]) and 1170 nM in the assay on MIA PaCa-2 cells (setting [6]).

Values taken from patent publication US20240262842A1, “SMALL MOLECULE INHIBITORS OF KRAS G12C MUTANT” (Merck Sharp & Dohme LLC, priority 2021, published 2024).
